Results published in patent US12448388B2, “PRMT5 inhibitors and uses thereof” (Gilead Sciences, Inc., priority 2023, dated 2025).
“And” between values parts separate entries of the source, which are not always exact repeats. Equal entries are not always repeated. Where two headings read alike, the source gives them in different places.

How the values were obtained:
[1] = Hepatocyte stability assay, rat; assay type: in vitro ADME; details: Sprague-Dawley Rat
Experimental: BioreclamationIVT (Baltimore, MD) provided the cryopreserved hepatocytes, hepatocyte thawing (HT) medium, and Krebs-Henseleit buffer (KHB) medium. The stock solution concentration was 1 M in DMSO and was then diluted further in acetonitrile/water (1:1 v/v). All other chemicals were purchased from Sigma-Aldrich (St. Louis, MO) or Thermo Fisher Scientific (Waltham, MA).
The quench solution used to stop reactions in the hepatocyte incubations was comprised of 100% (v/v) acetonitrile. Internal Standard/Quench (IS/Q) solution used to stop reactions with the positive control also contained 200 nM Labetalol.
Metabolic Stability in Cryopreserved Hepatocytes: Test compounds, or the positive control metabolic substrate, was incubated in suspensions of cryopreserved hepatocytes at a final concentration of 1 μM. Vials containing cryopreserved hepatocytes were removed from liquid nitrogen and immediately immersed in a 37° C. water bath. The vials were swirled gently until the contents had thawed. They were then immediately emptied into 48 mL of pre-warmed thawing medium in a 50 mL conical tube. Cells remaining in the vial were re-suspended with 1.0 mL of pre-warmed thawing medium and added to the conical tube. The tube was capped and then gently inverted several times to re-suspend the hepatocytes. The cell suspension was centrifuged at 500×g for 10 minutes at room temperature and the supernatant discarded. The cell pellet was loosened by gently swirling the centrifuge tube. Non-supplemented KHB medium was added to obtain the appropriate target cell density. The viabilities of all cell preparations were ≥85%, assessed by Trypan blue dye exclusion.
For incubations, aliquots of hepatocyte suspension (250 μL containing a cell concentration of 2×10^6 cells/mL) were added to 250 μL of 2 μM substrate (test compound or positive control) in supplemented KHB in duplicate wells in a 24-well plate. Final concentration in the incubations were 1×10^6 cells/mL and 1 μM substrate. A cell-free control incubation (KHB only) was also included. The incubations were carried out with gentle shaking in a 37° C. incubator under a humid atmosphere of 95% air/5% CO2 (v/v). Aliquots (100 μL) were removed after 0, 1, 3, and 6 hours and added to 200 μL quenching solution. The samples were then placed on a shaker for 10 min followed by centrifugation at 3000×g for 20 min. The supernatant was transferred to a new plate and diluted with 100 μL of water to reduce the organic content and then placed on a shaker for 10 mins. Samples were injected and analyzed with methods described below.
Liquid Chromatography: Quantification of positive control and test compound was performed by analyte/internal standard peak area ratios (PAR) measured on a Thermo Scientific™ Q Exactive™ Hybrid Quadrupole-Orbitrap Mass Spectrometer MS/MS with an electrospray interface operating in positive ion mode. The mass spectrometer was coupled to a Dionex Ultimate® 3000 HPLC system. Samples (10 μL aliquots) were injected with a Leap Technologies HTC PAL autosampler. For positive control, the column used was a Thermo Scientific™ Hypersil GOLD™ HPLC column ([…], 50×2.1 mm). Mobile phase A consisted of 95% (v/v) water, 5% (v/v) acetonitrile, and contained 0.1% (v/v) formic acid (FA). Mobile phase B consisted of 95% (v/v) acetonitrile, 5% (v/v) water, and contained 0.1% (v/v) FA. Elution was achieved, at a flow rate of 0.5 mL/min, by a series of linear gradients: initial condition was 5% B at 0 min, isocratic for 20 seconds; then linear gradient to 95% B over 90 seconds, followed by isocratic for 60 seconds at 95% B, and re-equilibrated to initial conditions over 70 seconds.
Metabolic stabilities of positive control and test compound were determined by measuring the rates of disappearance of the parent with time by determining the % of parent remaining at time t (Ct) {Obach 1997}.
Data (% of parent remaining) were plotted on a semi-log scale and fitted using an exponential fit: […]

[2] = PK data (IV/PO) in Sprague-Dawley rat; assay type: in vivo; details: for half-life / clearance / Vd / bioavailability: Sprague-Dawley, rat, in vivo; for half-life / clearance / Vd: iv; for clearance: read-out: Observed CL (converted); for Vd: read-out: Vss; for bioavailability: po
[3] = test system: Calu-6 (lung, adenocarcinoma; MTAP-WT); experiment: In vitro cell viability assay (CellTiter-Glo, 9 days), Calu-6; assay type: cell-based; details: Homo sapiens, Calu-6, 216 h, 9-day treatment
Experimental: (§1) Some Compounds of the Disclosure were tested in Calu-6 (Vendor: ATCC; Cat #HTB-56; Description: lung, adenocarcinoma), LU99 (Vendor: JCRB; Cat #JCRB0080; Description: lung, giant cell carcinoma), SW780 (Vendor: ATCC; Cat #CRL-2169; Description: bladder, urothelial carcinoma), and BxPC-3 (Vendor: ATCC; Cat #CRL-1687; Description: pancreas, adenocarcinoma) cellular viability assays according to the general protocol. Seeded cells into 96-well plate and incubated overnight. Seeded an additional 10 wells per cell line in an additional 96-well plate for assessing Time Zero luminescence and incubated overnight. To treatment plates, added compounds into each well using Tecan D300e dispenser (nine three-fold dilutions starting at […]) and incubated for 9 days. Time Zero (no compound treatment, luminescence assessed on day 1) and 9-day treatment (luminescence assessed on day 10) plates were assessed using the same CellTiter-Glo® substrate protocol. Thawed CellTiter-Glo® Buffer and lyophilized CellTiter-Glo® substrate and equilibrated to room temperature prior to use. Transferred 100 ml CellTiter-Glo® Buffer into amber bottle containing CellTiter-Glo® substrate to reconstitute the lyophilized enzyme/substrate mixture. For Time Zero and 9-day treatment plates, removed all plating media. Added 100 μl fresh media/well. Added 100 μl CellTiter-Glo® Reagent per well. Mixed contents for 10 min on an orbital shaker to lyse cells. Recorded luminescence with Perkin Elmer Envision 2105 machine. Analyzed the data with GraphPad software.

[4] = test system: SW780 (bladder, urothelial carcinoma; MTAP-Deleted); experiment: In vitro cell viability assay (CellTiter-Glo, 9 days), SW780; assay type: cell-based; details: Homo sapiens, SW780, 216 h, 9-day treatment
Experimental: as §1

SMILES | Predicted Hepatocyte CL [1] | GI50 [3] | GI50 [4] | half-life ([2]; 0.33 mg/kg, IV 0.33 mg/Kg) | clearance ([2]; 0.33 mg/kg, IV 0.33 mg/Kg) | Vd ([2]; 0.33 mg/kg, IV 0.33 mg/Kg) | also measured
C[C@H]1CN(C(=O)c2cc3c(cc2F)nc(N)c2cncn23)[C@H]2c3ccc(C(F)(F)F)cc3C[C@H]2O1 (single isomer, unassigned) [Ff-81] | 18.3 mL/min/kg | > 10000 nM | 25 nM |  |  |  | half-life ([2]; 1 mg/kg, IV 1 mg/Kg): 4.7 h; clearance ([2]; 1 mg/kg, IV 1 mg/Kg): 4 mL/min/kg; Vd ([2]; 1 mg/kg, IV 1 mg/Kg): 1.65 L/kg
C[C@@H]1CN(C(=O)c2cc3c(cc2F)nc(N)c2cncn23)[C@H]2c3ccc(OC(F)(F)F)cc3C[C@H]2O1 (single isomer, unassigned) [Ff-183] |  | 2150 nM | 19 nM |  |  |  | 
Nc1nc2cnc(C(=O)N3CCC[C@@H]4Oc5cc(C(F)(F)F)cc(F)c5[C@@H]43)cc2n2cncc12 (single isomer, unassigned) [Fg-53] | 18.7 mL/min/kg | 1260 nM | 9 nM | 4.6 h | 7.33 mL/min/kg | 2.45 L/kg | bioavailability ([2]; 1.66 mg/kg, PO 1.66 mg/Kg): 120%
Nc1nc2cnc(C(=O)N3CCC[C@@H]4Oc5cc(OC(F)(F)F)cc(F)c5[C@@H]43)cc2n2cncc12 (single isomer, unassigned) [Fg-55] | 15.5 mL/min/kg | 2510 nM | 23 nM | 6 h | 3.5 mL/min/kg | 1.73 L/kg | bioavailability ([2]; 1.66 mg/kg, PO 1.66 mg/Kg): 99%
Nc1nc2cc(F)c(C(=O)N3CCC[C@@H]4Oc5cc(C(F)(F)F)ccc5[C@@H]43)cc2n2cncc12 [Ff-104, (4-amino-7-fluoroimidazo[1,5-a]quinoxalin-8-yl)((4aS,9bS)-7-(trifluoromethyl)-3,4,4a,9b-tetrahydrobenzofuro[3,2-b]pyridin-1(2H)-yl)methanone] | 27.7 mL/min/kg and 20.7 mL/min/kg | 2150 nM | 5 nM | 3.7 h |  |  | T1/2 ([2]; IV 0.33 mg/Kg, 0.33 mg/kg): 3.77 h; % F ([2]; PO 1.66 mg/Kg, 1.66 mg/kg): 67% and 98%
Nc1nc2cnc(C(=O)N3CCC[C@@H]4Oc5cc(C(F)(F)F)ccc5[C@@H]43)cc2n2cncc12 [Ff-110, (4-aminoimidazo[1,5-a]pyrido[3,4-e]pyrazin-8-yl)((4aS,9bS)-7-(trifluoromethyl)-3,4,4a,9b-tetrahydrobenzofuro[3,2-b]pyridin-1(2H)-yl)methanone] |  | 1550 nM | 120 nM |  |  |  | 
Nc1nc2ccc(C(=O)N3CCC[C@@H]4Oc5cc(C(F)(F)F)ccc5[C@@H]43)cc2n2cncc12 [Ff-111, (4-aminoimidazo[1,5-a]quinoxalin-8-yl)((4aS,9bS)-7-(trifluoromethyl)-3,4,4a,9b-tetrahydrobenzofuro[3,2-b]pyridin-1(2H)-yl)methanone] | 27.8 mL/min/kg | > 6400 nM | 11 nM | 5.9 h | 2.5 mL/min/kg | 1.29 L/kg | 
Cc1ncc2c(N)nc3cnc(C(=O)N4CCC[C@@H]5Oc6cc(OC(F)(F)F)ccc6[C@@H]54)cc3n12 [Ff-340, (4-amino-1-methylimidazo[1,5-a]pyrido[3,4-e]pyrazin-8-yl)((4aS,9bS)-7-(trifluoromethoxy)-3,4,4a,9b-tetrahydrobenzofuro[3,2-b]pyridin-1(2H)-yl)methanone] | 19.8 mL/min/kg | 2950 nM | 23 nM | 5.3 h | 8.83 mL/min/kg | 3.2 L/kg | 
Nc1nc2cnc(C(=O)N3CCC[C@@H]4Oc5cc(OC(F)(F)F)ccc5[C@@H]43)cc2n2cncc12 [Ff-341, (4-aminoimidazo[1,5-a]pyrido[3,4-e]pyrazin-8-yl)((4aS,9bS)-7-(trifluoromethoxy)-3,4,4a,9b-tetrahydrobenzofuro[3,2-b]pyridin-1(2H)-yl)methanone] | 16 mL/min/kg | 2440 nM | 10 nM |  |  |  | half-life ([2]; 0.25 mg/kg, IV 0.25 mg/Kg): 4.6 h; clearance ([2]; 0.25 mg/kg, IV 0.25 mg/Kg): 3.5 mL/min/kg; Vd ([2]; 0.25 mg/kg, IV 0.25 mg/Kg): 1.45 L/kg; bioavailability ([2]; 1.25 mg/kg, PO 1.25 mg/Kg): 99%
Cc1ncn2c1c(N)nc1cnc(C(=O)N3CCC[C@@H]4Oc5cc(C(F)(F)F)ccc5[C@@H]43)cc12 [Ff-499, (4-amino-3-methylimidazo[1,5-a]pyrido[3,4-e]pyrazin-8-yl)((4aS,9bS)-7-(trifluoromethyl)-3,4,4a,9b-tetrahydrobenzofuro[3,2-b]pyridin-1(2H)-yl)methanone] | 37.2 mL/min/kg |  |  | 3.1 h | 8.17 mL/min/kg | 1.72 L/kg | 
Nc1nc2cnc(C(=O)N3CC4(CC4)C[C@@H]4Oc5cc(C(F)(F)F)ccc5[C@@H]43)cc2n2cncc12 [Ff-648, (4-aminoimidazo[1,5-a]pyrido[3,4-e]pyrazin-8-yl)((4aS,9bS)-7-(trifluoromethyl)-4a,9b-dihydro-2H-spiro[benzofuro[3,2-b]pyridine-3,1′-cyclopropan]-1(4H)-yl)methanone] |  | 1660 nM | 12 nM |  |  |  | 
